In PubChem BioAssay AID256 (DTP/NCI, 2004) one finds T/C data, which are given here for 26 compounds.

Values joined by “and” are separate entries in the source; they are usually repeats but may differ in a detail not shown here. Equal entries are not always repeated. Inconclusive results and toxic doses are left out.

The experiment relates to CD2F1 mice, L1210 leukemia ip, survival T/C. Description: NCI In Vivo Anticancer Drug Screen. Data for tumor model L1210 Leukemia (intraperitoneal) in CD2F1 (CDF1) mice. The note with it: endpoint: mean survival time, higher = longer survival. The procedure, abridged: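 Mice carrying a transplanted tumor received test compound or vehicle alone. The value is the measurement in the treated group divided by that in the vehicle-treated control group.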

Setting [1] is: dose: 100.0 mg/kg/injection, schedule: Q01DX001 (ip), vehicle: saline sonified.
[2] abbreviates: dose: 100.0 mg/kg/injection, schedule: Q04DX002 (ip), vehicle: saline with Tween-80.
Setting [3] is: dose: 200.0 mg/kg/injection, schedule: Q01DX001 (ip), vehicle: saline sonified.
The mark [4] stands for this setting: dose: 400.0 mg/kg/injection, schedule: Q01DX001 (ip), vehicle: saline sonified.
Where [5] appears, read: dose: 6.25 mg/kg/injection, schedule: Q01DX009 (ip), vehicle: saline with Tween-80.
[6] abbreviates: dose: 12.5 mg/kg/injection, schedule: Q01DX009 (ip), vehicle: saline with Tween-80.
[7] abbreviates: dose: 25.0 mg/kg/injection, schedule: Q01DX009 (ip), vehicle: saline with Tween-80.
Setting [8] is: dose: 50.0 mg/kg/injection, schedule: Q01DX009 (ip), vehicle: saline with Tween-80.
[9] abbreviates: dose: 100.0 mg/kg/injection, schedule: Q01DX009 (ip), vehicle: saline with Tween-80.
The mark [10] stands for this setting: dose: 100.0 mg/kg/injection, schedule: Q01DX001 (ip), vehicle: saline.
Where [11] appears, read: dose: 200.0 mg/kg/injection, schedule: Q01DX001 (ip), vehicle: saline.
[12] abbreviates: dose: 400.0 mg/kg/injection, schedule: Q01DX001 (ip), vehicle: saline.
The mark [13] stands for this setting: dose: 100.0 mg/kg/injection, schedule: Q04DX003 (ip), vehicle: saline with Tween-80.
Where [14] appears, read: dose: 200.0 mg/kg/injection, schedule: Q04DX003 (ip), vehicle: saline with Tween-80.
[15] abbreviates: dose: 400.0 mg/kg/injection, schedule: Q04DX003 (ip), vehicle: saline with Tween-80.
The mark [16] stands for this setting: dose: 200.0 mg/kg/injection, schedule: Q01DX009 (ip), vehicle: saline with Tween-80.
The mark [17] stands for this setting: dose: 400.0 mg/kg/injection, schedule: Q01DX009 (ip), vehicle: saline with Tween-80.
[18] abbreviates: dose: 25.0 mg/kg/injection, schedule: Q04DX002 (ip), vehicle: saline with Tween-80.
[19] abbreviates: dose: 50.0 mg/kg/injection, schedule: Q04DX002 (ip), vehicle: saline with Tween-80.

With `ClC1(Cl)C2CCCCCCC21` (configuration not stated), the T/C is 95 % of control under setting [1]; 103 % of control (dose: 100.0 mg/kg/injection, schedule: Q01DX009 (ip), vehicle: saline sonified); 91 % of control under setting [2]; 105 % of control under setting [3]; 101 % of control (dose: 200.0 mg/kg/injection, schedule: Q01DX009 (ip), vehicle: saline sonified); 95 % of control (dose: 200.0 mg/kg/injection, schedule: Q04DX002 (ip), vehicle: saline with Tween-80). Further, the T/C is 100 % of control under setting [4] and 103 % of control (dose: 400.0 mg/kg/injection, schedule: Q01DX009 (ip), vehicle: saline sonified).
For the compound `O=C1/C(=C\c2ccccc2)C2CCC(C2)/C1=C\c1ccccc1`, the T/C by setting is: (dose: 100.0 mg/kg/injection, schedule: Q01DX001 (ip), vehicle: saline with Tween-80) 91 % of control; (dose: 200.0 mg/kg/injection, schedule: Q01DX001 (ip), vehicle: saline with Tween-80) 88 % of control; (dose: 400.0 mg/kg/injection, schedule: Q01DX001 (ip), vehicle: saline with Tween-80) 97 % of control.
On to `CCCCCCCCCCCC(=O)CCCC`, for which the T/C by setting is: (dose: 100.0 mg/kg/injection, schedule: Q01DX009 (ip), vehicle: other) 98 % of control; (dose: 100.0 mg/kg/injection, schedule: Q04DX003 (ip), vehicle: other) 102 % of control; (dose: 200.0 mg/kg/injection, schedule: Q01DX009 (ip), vehicle: other) 104 % of control; (dose: 200.0 mg/kg/injection, schedule: Q04DX003 (ip), vehicle: other) 91 % of control; (dose: 400.0 mg/kg/injection, schedule: Q01DX009 (ip), vehicle: other) 106 % of control; (dose: 400.0 mg/kg/injection, schedule: Q04DX003 (ip), vehicle: other) 97 % of control.
As for `O=C1C=CC(=O)N1c1ccccc1N1C(=O)C=CC1=O`, the T/C (dose: 1.25 mg/kg/injection, schedule: Q01DX009 (ip), vehicle: Klucel (hydroxypropylcellulose) (HPC)) was 90 % of control and the T/C (dose: 2.5 mg/kg/injection, schedule: Q01DX009 (ip), vehicle: Klucel (hydroxypropylcellulose) (HPC)) is 94 % of control.
On to `CS(=O)(=O)c1ncc(Br)cn1`, for which the T/C is 101 % of control (dose: 3.12 mg/kg/injection, schedule: Q01DX009 (ip), vehicle: saline with Tween-80); 101 % of control (dose: 3.13 mg/kg/injection, schedule: Q01DX009 (ip), vehicle: saline with Tween-80); 101 % of control and 106 % of control under setting [5]; 101 % of control and 102 % of control under setting [6]; 95 % of control and 107 % of control under setting [7]; 103 % of control and 104 % of control under setting [8]. Also, the T/C under setting [9] was 104 % of control and 108 % of control.
As to `CSC(=C[N+](=O)[O-])SC`, the T/C runs as follows: (dose: 25.0 mg/kg/injection, schedule: Q01DX009 (ip), vehicle: Klucel (hydroxypropylcellulose) (HPC)) 97 % of control; (dose: 50.0 mg/kg/injection, schedule: Q01DX009 (ip), vehicle: Klucel (hydroxypropylcellulose) (HPC)) 106 % of control.
Regarding `Cc1[nH]c(=S)[nH]c(=O)c1CCS`, the T/C under setting [10] is 104 % of control, the T/C under setting [11] is 101 % of control and the T/C under setting [12] was 98 % of control.
As to `CNC=O`, the T/C by setting is: (dose: 100.0 mg/kg/injection, schedule: Q01DX009 (ip), vehicle: saline) 103 % of control and 111 % of control; (dose: 200.0 mg/kg/injection, schedule: Q01DX009 (ip), vehicle: saline) 112 % of control; (dose: 800.0 mg/kg/injection, schedule: Q01DX009 (ip), vehicle: saline) 164 % of control.
Turning to `O=C1CSC(=S)N1/N=C/c1ccccc1`, the T/C (dose: 100.0 mg/kg/injection, schedule: Q04DX002 (ip), vehicle: saline) was 103 % of control.
Consider `Nc1nc2c(c(=O)[nH]1)N(C(=S)Nc1ccccc1)C(CNc1ccc(C(=O)NC(CCC(=O)O)C(=O)O)cc1)CN2` (configuration not stated), for which the T/C is, setting by setting: under setting [10], 101 % of control; under setting [11], 101 % of control; under setting [12], 104 % of control.
For the compound `NC(=S)N/N=C/C(=O)c1ccc(Br)cc1`, the T/C runs as follows: under setting [10], 102 % of control; under setting [11], 100 % of control.
Take `C=C(C)C12CC(COC(=O)c3ccccc3)C34OC5(OC1C3C1OC1(COC(=O)CCCCCCCCCCCCCCC)C(O)C1(O)C(OC(=O)c3ccccc3)C(C)C(C(C)CCCCCCC5O)C14)O2` (configuration not stated): the T/C was 107 % of control (dose: 6.3 micrograms/kg/injection, schedule: Q01DX009 (ip), vehicle: saline); 103 % of control (dose: 12.5 micrograms/kg/injection, schedule: Q01DX009 (ip), vehicle: saline); 102 % of control (dose: 25.0 micrograms/kg/injection, schedule: Q01DX009 (ip), vehicle: saline); 105 % of control (dose: 50.0 micrograms/kg/injection, schedule: Q01DX009 (ip), vehicle: saline).
Regarding `O=C(OCC1OCOC(COC(=O)c2ccccc2)C(O)C1O)c1ccccc1` (configuration not stated), the T/C is 97 % of control under setting [13], 97 % of control under setting [14] and 86 % of control under setting [15].
Regarding `Nc1ncnc2c1ncn2C(C=O)OC(C=O)CO` (configuration not stated), where the note is “dose: 35.0 mg/kg/injection, schedule: Q01DX001 (ip), vehicle: saline”, the T/C was 117 % of control.
In the case of `CCN(CC)CCCN(CC(=O)O)CC(=O)O`, the T/C under setting [10] was 103 % of control.
With `C/C(=N/N)c1ccc(Br)cc1`, the T/C is, setting by setting: under setting [5], 106 % of control; (dose: 6.25 mg/kg/injection, schedule: Q04DX003 (ip), vehicle: saline with Tween-80) 101 % of control; under setting [6], 116 % of control; (dose: 12.5 mg/kg/injection, schedule: Q04DX003 (ip), vehicle: saline with Tween-80) 98 % of control; under setting [7], 110 % of control; (dose: 25.0 mg/kg/injection, schedule: Q04DX003 (ip), vehicle: saline with Tween-80) 95 % of control.
For the compound `CC(=O)Nc1ccccc1C#N`, the T/C by setting is: under setting [9], 98 % of control; under setting [16], 98 % of control; under setting [17], 113 % of control.
As for `CC(=O)CS(=O)(=O)CC(N)=O`, the T/C is 96 % of control under setting [1], 96 % of control under setting [3] and 97 % of control under setting [4].
As for `CN(C)Cc1ncccc1O`, the T/C is 110 % of control (dose: 50.0 mg/kg/injection, schedule: Q01DX009 (ip), vehicle: suspension in saline); 108 % of control (dose: 100.0 mg/kg/injection, schedule: Q01DX009 (ip), vehicle: suspension in saline); 112 % of control (dose: 200.0 mg/kg/injection, schedule: Q01DX009 (ip), vehicle: suspension in saline).
For the compound `CN=C(NC)N/N=C(/c1ccc(Br)cc1)c1ccc(C(F)(F)F)cc1`, the T/C (dose: 12.5 mg/kg/injection, schedule: Q04DX002 (ip), vehicle: saline with Tween-80) is 90 % of control; the T/C under setting [18] is 90 % of control; the T/C (dose: 50.0 mg/kg/injection, schedule: Q04DX003 (ip), vehicle: saline with Tween-80) was 98 % of control; the T/C under setting [1] was 97 % of control; the T/C under setting [3] was 93 % of control.
Take `[NH2-].[NH2-].[NH2-].[NH2-].[NH2-].[NH2-].[Ru+6]`: where the note is “dose: 12.5 mg/kg/injection, schedule: Q04DX002 (ip), vehicle: saline”, the T/C is 86 % of control.
In the case of `O=C(/C=C\c1ccc(Cl)c(Cl)c1)/C=C/c1ccc(Cl)c(Cl)c1`, the T/C was 95 % of control under setting [18], 87 % of control under setting [19] and 106 % of control under setting [2].
In the case of `O=C(N/N=C/c1ccc(Cl)cc1)C(O)(c1ccccc1)c1ccccc1`, the T/C under setting [7] is 102 % of control, the T/C under setting [8] was 91 % of control and the T/C under setting [9] is 96 % of control.
For the compound `Nc1ccccc1N=Cc1cccc([N+](=O)[O-])c1`, the T/C runs as follows: under setting [9], 94 % of control; under setting [13], 101 % of control; under setting [16], 96 % of control; under setting [14], 98 % of control; under setting [17], 100 % of control; under setting [15], 101 % of control.
As for `Cc1[nH]c2ccc(N=CN(C)C)cc2c1C`, the T/C reads like this: under setting [18], 111 % of control; under setting [19], 111 % of control.
Take `CCCCCCCCCCCc1cc(=O)n(-c2cc(Cl)ccc2Cl)n1C`: the T/C was 96 % of control under setting [18], 88 % of control under setting [19] and 86 % of control under setting [2].
